In US20190076392A1, “METHODS FOR TREATING CANCER” (Boston Biomedical, Inc., priority 2016, published 2019):

What was measured:
STAT3 pathway = conditions: according to U.S. Pat. No. 8,877,803; read-out: STAT3 pathway activity, cellular IC50; cited from earlier work
STAT3 = assay: Clinical trials, overall survival by STAT3/pSTAT3 level; format: in vivo, human; conditions: patients with higher expression levels of STAT3 (pSTAT3 before treatment), at least in CRC patients
Text: Thus, the higher the level of pSTAT3 found in a cancer patient before treatment, at least in CRC patients, the higher the overall survival (OS) upon administering a treatment comprising at least one compound of formula (I).

[1] = test system: Paca-2 human pancreatic cancer; assay: Human PDAC xenograft tumor (Paca-2) in nude mice; format: in vivo
Text: FIGS. 5A and 5B show an exemplary effect of a 2-acetylnaphtho[2,3-b]furan-4,9-dione and gemcitabine treatment on pancreatic ductal adenocarcinoma (PDAC) in an xenograft tumor mouse model according to certain embodiments of the present disclosure.
The effects of 2-acetylnaphtho[2,3-b]furan-4,9-dione, a compound of formula (I), on a human PDAC xenograft tumor (Paca-2) in nude mice were studied. Specifically, immunosuppressed mice with Paca-2 human pancreatic cancer were given 2-acetylnaphtho[2,3-b]furan-4,9-dione (20 mg/kg) or vehicle control IP daily or gemcitabine (120 mg/kg) or vehicle control IP every 3 days. Tumor size was evaluated periodically during treatment. Each point represents the mean+SEM of five tumors.

human p-STAT3 = molecular target: T1, human p-STAT3 (Homo sapiens, UniProt P40763); assay: Immunofluorescence staining of xenograft tumor cells for p-STAT3; format: in vivo; conditions: human colon cancer xenograft tumor (SW480) in nude mice; treated vs control
T1 construct: p-STAT3 and β-CATENIN protein levels in human colon cancer xenograft tumor (SW480) in nude mice; endogenous in cells; host or cells: SW480 human colon cancer xenograft tumor in nude mice
Text: (§1) The effects of 2-acetylnaphtho[2,3-b]furan-4,9-dione, a compound of formula (I), to tumor cells were studied by analyzing the tumor cells treated with the compound or without the compound (control) with immunofluorescence staining using antibodies specific for human p-STAT3 and 13-CATENIN.

[2] = Phase Ib study in mPDAC patients, safety and adverse events; format: in vivo, human; conditions: in combination with gemcitabine and nab-paclitaxel
Text: The effects of 2-acetylnaphtho[2,3-b]furan-4,9-dione, a compound of formula (I), in combination with gemcitabine and nab-paclitaxel in patients with metastatic pancreatic ductal adenocarcinoma (mPDAC) were studied in a Phase Ib extension, open label, multi-center study.
In that clinical study, the safety, tolerability and the recommended Phase II dose (RP2D), PK profile, and signs of anti-cancer activity of 2-acetylnaphtho[2,3-b]furan-4,9-dione in combination with nab-paclitaxel and gemcitabine were assessed in adult patients with metastatic pancreatic cancer. In each treatment cycle, 2-acetylnaphtho[2,3-b]furan-4,9-dione was administered at 240 mg BID for 4 weeks in combination with nab-paclitaxel 125 mg/m^2 and gemcitabine 1000 mg/m^2 administered weekly for 3 out of the 4 weeks. The treatment continued in 28-day cycles.
The patients received continuous oral administration of BBI-608 twice daily in 28 day cycles. A standard gemcitabine and nab-paclitaxel regimen was administered on days 1, 8 and 15 of every 28 day study cycle. Specifically, BBI-608 was administered at 240 mg BID in combination with gemcitabine 1000 mg/m^2 and nab-paclitaxel 125 mg/m^2 administered weekly for 3 out every 4 weeks until progression of disease, unacceptable toxicity, or another discontinuation criterion was met. Pharmacokinetics and pharmacodynamics were evaluated and objective tumor response was assessed every 8 weeks using Response Evaluation Criteria In Solid Tumors (RECIST 1.1).

β-CATENIN = assay: Immunofluorescence staining of xenograft tumor cells for β-CATENIN; format: in vivo; conditions: human colon cancer xenograft tumor (SW480) in nude mice; treated vs control
Text: as §1

[3] = test system: human pancreatic adenocarcinoma (Panc-1); assay: Human pancreatic adenocarcinoma (Panc-1) xenograft in immunosuppressed mice; format: in vivo
Text: FIG. 6 show an exemplary effect of 2-acetylnaphtho[2,3-b]furan-4,9-dione, gemcitabine (Gemzar), and the combination of 2-acetylnaphtho[2,3-b]furan-4,9-dione and gemcitabine treatment on tumor volume in an xenograft tumor mouse model according to certain embodiments of the present disclosure.
The effects of 2-acetylnaphtho[2,3-b]furan-4,9-dione, a compound of formula (I), gemcitabine, and a combination of 2-acetylnaphtho[2,3-b]furan-4,9-dione and gemcitabine were studied. Specifically, immunosuppressed mice with established human pancreatic adenocarcinoma (Panc-1) were treated with vehicle control, 2-acetylnaphtho[2,3-b]furan-4,9-dione (100 mg/kg, PO, bid), gemcitabine (Gemzar, 80 mg/kg, IV, q3d), or the combination of 2-acetylnaphtho[2,3-b]furan-4,9-dione and gemcitabine. Tumor size was evaluated periodically during treatment. Each point represents the mean+SEM of five tumors.

T1 sequence (P40763 whole entry): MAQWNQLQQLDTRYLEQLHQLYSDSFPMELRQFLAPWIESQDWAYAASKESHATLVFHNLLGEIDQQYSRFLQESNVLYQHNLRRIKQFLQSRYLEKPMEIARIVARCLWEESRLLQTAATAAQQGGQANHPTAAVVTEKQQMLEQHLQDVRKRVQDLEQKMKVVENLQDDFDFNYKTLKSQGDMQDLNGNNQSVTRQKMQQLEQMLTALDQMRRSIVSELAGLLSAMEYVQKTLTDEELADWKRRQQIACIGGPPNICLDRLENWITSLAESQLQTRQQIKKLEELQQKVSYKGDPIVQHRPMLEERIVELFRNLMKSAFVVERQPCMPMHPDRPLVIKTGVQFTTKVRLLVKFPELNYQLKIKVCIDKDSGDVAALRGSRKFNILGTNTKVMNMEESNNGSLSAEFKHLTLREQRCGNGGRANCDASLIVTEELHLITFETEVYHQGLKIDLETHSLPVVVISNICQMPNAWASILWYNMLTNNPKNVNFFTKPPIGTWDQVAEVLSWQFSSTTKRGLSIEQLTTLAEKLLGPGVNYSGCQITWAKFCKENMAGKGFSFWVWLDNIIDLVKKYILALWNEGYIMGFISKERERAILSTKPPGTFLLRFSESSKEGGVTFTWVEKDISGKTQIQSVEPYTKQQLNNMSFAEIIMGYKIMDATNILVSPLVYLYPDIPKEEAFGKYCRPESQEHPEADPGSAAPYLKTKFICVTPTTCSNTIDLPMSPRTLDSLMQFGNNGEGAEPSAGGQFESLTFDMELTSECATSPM

tumor cells with positive staining for human p-STAT3 (human p-STAT3) | SMILES | IC50 (STAT3 pathway) [nM] | overall survival after treatment (STAT3) | tumor growth (tumor size) ([1]; 20 mg/kg IP daily) | grade 3 AEs related to napabucasin, number of patients [2] [patients] | grade 3 dehydration related to napabucasin, number of patients [2] [patient] | grade 3 diarrhea related to napabucasin, number of patients [2] [patient] | grade 3 fatigue related to napabucasin, number of patients [2] [patients] | grade 3 hypokalemia related to napabucasin, number of patients [2] [patient] | grade 3 nausea related to napabucasin, number of patients [2] [patient] | most common adverse events (AEs) related to napabucasin [2] | tumor cells with positive staining for β-CATENIN (β-CATENIN) | tumor growth (tumor size) ([3]; 100 mg/kg, PO, bid) | tumor growth (tumor size) ([1]; 120 mg/kg IP every 3 days) | tumor growth (tumor size) ([3]; Gemzar, 80 mg/kg, IV, q3d)
effectively inhibited | CC(=O)c1cc2c(o1)C(=O)c1ccccc1C2=O [2-acetylnaphtho[2,3-b]furan-4,9-dione] | ~250 | prolonged overall survival | effective at inhibiting tumor growth | 9 | 1 | 1 | 5 | 1 | 1 | grade 1 diarrhea, abdominal pain, nausea, and fatigue | effectively inhibited | certain effects in inhibiting tumor growth |  | 
 | Nc1ccn([C@@H]2O[C@H](CO)[C@@H](O)C2(F)F)c(=O)n1 [gemcitabine, reference compound] |  |  |  |  |  |  |  |  |  |  |  |  | only a marginal effect on tumor growth | certain effects in inhibiting tumor growth
